These are literature values, as cited in article PMC11791199 (Scientific Reports, 2025).

Starred links: 1 amine or outer side, 2 acyl side, 3 side chain; linkers in the order of their positions; H or OH if unused. Positions of bridges follow the written chain, without caps; N, C: chain ends. Non-standard residues stand in square brackets, D forms with d. Residues, ends and D or L forms follow the SMILES beside them. *: point of attachment. Phe(3R-OH) = O=C([C@@H](N[*:1])[C@H](O[*:3])c1ccccc1)[*:2]; NMeTrp(4-OMe) = CN[C@@H](Cc1c[nH]c2cccc(OC)c12)C(=O)O; NMeaIle = CC[C@@H](C)[C@H](NC)C(=O)O; NMe2Val = CC(C)[C@@H](C(=O)*)N(C)C; NMeT = CN[C@H](C(=O)O)[C@@H](C)O; NMeL = CN[C@@H](CC(C)C)C(=O)O; NMeV = CN[C@H](C(=O)O)C(C)C

Common to all, as to conditions: cited from earlier work
The target of data set [1] is ClpC1 (Mycobacterium tuberculosis, UniProt P9WPC9).
Sequence of ClpC1 (P9WPC9 whole entry): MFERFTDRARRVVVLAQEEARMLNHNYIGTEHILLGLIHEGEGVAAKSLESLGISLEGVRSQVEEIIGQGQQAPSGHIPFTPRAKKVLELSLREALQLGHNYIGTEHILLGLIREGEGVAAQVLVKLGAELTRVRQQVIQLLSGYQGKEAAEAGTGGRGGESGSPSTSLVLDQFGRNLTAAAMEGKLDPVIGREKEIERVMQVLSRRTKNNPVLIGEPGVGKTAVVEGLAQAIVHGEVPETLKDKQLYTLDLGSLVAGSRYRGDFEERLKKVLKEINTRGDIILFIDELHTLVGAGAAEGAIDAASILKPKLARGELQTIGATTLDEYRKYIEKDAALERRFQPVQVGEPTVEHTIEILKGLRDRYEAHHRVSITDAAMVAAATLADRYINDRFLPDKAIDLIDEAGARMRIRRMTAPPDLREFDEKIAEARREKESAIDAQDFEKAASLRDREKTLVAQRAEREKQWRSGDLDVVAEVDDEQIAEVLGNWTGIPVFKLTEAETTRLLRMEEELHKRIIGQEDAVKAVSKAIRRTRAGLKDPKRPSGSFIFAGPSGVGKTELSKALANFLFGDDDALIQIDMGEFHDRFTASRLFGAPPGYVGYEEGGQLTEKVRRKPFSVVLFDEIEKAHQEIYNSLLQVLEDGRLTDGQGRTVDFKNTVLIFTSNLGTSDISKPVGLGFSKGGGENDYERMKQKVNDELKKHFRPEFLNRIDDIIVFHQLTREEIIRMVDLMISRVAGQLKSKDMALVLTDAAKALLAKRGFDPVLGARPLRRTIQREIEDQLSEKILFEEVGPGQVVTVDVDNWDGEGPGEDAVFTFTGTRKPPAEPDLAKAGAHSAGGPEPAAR
Data set [2] concerns tuberculosis.
Data set [3] concerns the target ClpC1P1P2 (Mycobacterium tuberculosis, UniProt P9WPC9).
Data set [4] deals with ClpC1 NTD (Mycobacterium tuberculosis, UniProt P9WPC9).
Sequence of ClpC1 NTD (P9WPC9 2-144): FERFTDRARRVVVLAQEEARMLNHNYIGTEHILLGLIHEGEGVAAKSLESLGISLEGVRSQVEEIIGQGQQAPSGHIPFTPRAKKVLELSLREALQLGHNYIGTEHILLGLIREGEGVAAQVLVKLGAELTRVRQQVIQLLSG

Sequence of ClpC1P1P2 (P9WPC9 whole entry): as the sequence (P9WPC9 whole entry) above

As to `CC[C@@H](C)[C@@H](C(=O)N[C@@H]1C(=O)N(C)[C@@H]([C@@H](C)O)C(=O)N[C@@H](C(C)C)C(=O)N(C)[C@@H](CC(C)C)C(=O)N[C@@H](C(C)C)C(=O)N(C)[C@@H](C(C)C)C(=O)N(C)[C@@H](Cc2c[nH]c3cccc(OC)c23)C(=O)N[C@@H](C(C)C)C(=O)N[C@@H]([C@H](O)c2ccccc2)C(=O)N[C@@H](C(C)C)C(=O)O[C@@H]1C)N(C)C(=O)[C@@H](NC(=O)[C@H](C(C)C)N(C)C)C(C)C` [ecumicin] (NMe2Val-V[NMeaIle]T[NMeT]V[NMeL]V[NMeV][NMeTrp(4-OMe)]V[Phe(3R-OH)]V; ester 3-C), the “effect on ATPase activity” value in data set [1] is given as “strong activator”. Further, in data set [2], the “MIC value, times lower than that of rifampicin or isoniazid” value is on record as 50 times. The “effect on FITC-casein degradation” value in data set [3] is “inhibitor”.

With cyclomarin, the “effect on ATPase activity” value in data set [1] is “very modest effects”. Also, in data set [3], the “effect on FITC-casein degradation” value is given as “very modest effects”. The “affinity for ClpC1-NTD” value in data set [4] is listed as “nM affinity”.
